# Laboratory results from ChEMBL document CHEMBL1131484, “Human growth hormone-releasing hormone hGHRH(1-29)-NH2: systematic structure-activity relationship studies” (J Med Chem, 1998).
# “And” between values parts separate entries of the source, which are not always exact repeats. Identical values can stand only once. Square brackets hold non-standard residues; d marks the D form. Peptide text beside a SMILES is read from it. αMeY = C[C@](N)(Cc1ccc(O)cc1)C(=O)O
# Target: T1, Growth hormone-releasing hormone receptor (Rattus norvegicus) (UniProt Q02644)
# T1 sequence (whole entry): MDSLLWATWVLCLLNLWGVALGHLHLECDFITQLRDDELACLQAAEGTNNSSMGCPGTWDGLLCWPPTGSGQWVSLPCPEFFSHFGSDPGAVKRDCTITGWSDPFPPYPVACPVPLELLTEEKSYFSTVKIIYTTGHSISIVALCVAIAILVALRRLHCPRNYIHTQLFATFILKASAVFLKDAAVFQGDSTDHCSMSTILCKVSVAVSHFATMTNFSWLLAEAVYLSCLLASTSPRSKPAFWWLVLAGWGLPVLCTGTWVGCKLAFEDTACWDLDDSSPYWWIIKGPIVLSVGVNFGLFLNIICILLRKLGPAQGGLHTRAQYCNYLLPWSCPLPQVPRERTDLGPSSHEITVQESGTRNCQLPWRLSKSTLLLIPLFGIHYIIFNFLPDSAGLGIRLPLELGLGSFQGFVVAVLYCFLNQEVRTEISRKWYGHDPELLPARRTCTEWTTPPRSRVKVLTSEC
# Test: Potency for growth hormone releasing hormone receptor (GHRFR) relative to human GHRH(1-40)OH- in the rat pituitary cell culture assay
# Assay type: functional, cell-based
# Settings: Pituitary gland cell
row,Relative potency,Compound
1,25.6,CC[C@H](C)[C@H](NC(=O)[C@H](C)NC(=O)[C@H](CC(=O)O)NC(=O)[C@H](C)NC(=O)[C@@](C)(N)Cc1ccc(O)cc1)C(=O)N[C@@H](Cc1ccccc1)C(=O)N[C@H](C(=O)N[C@@H](CC(N)=O)C(=O)N[C@@H](CO)C(=O)N[C@@H](Cc1ccc(O)cc1)C(=O)N[C@@H](CCCN=C(N)N)C(=O)N[C@@H](CCCCN)C(=O)N[C@H](C(=O)N[C@@H](CC(C)C)C(=O)N[C@@H](C)C(=O)N[C@@H](CCC(N)=O)C(=O)N[C@@H](CC(C)C)C(=O)N[C@@H](CO)C(=O)N[C@@H](C)C(=O)N[C@@H](CCCN=C(N)N)C(=O)N[C@@H](CCCCN)C(=O)N[C@@H](C)C(=O)N[C@@H](CC(C)C)C(=O)N[C@@H](CCC(N)=O)C(=O)N[C@@H](CC(=O)O)C(=O)N[C@H](C(=O)N[C@@H](CCSC)C(=O)N[C@@H](CO)C(=O)N[C@@H](CCCN=C(N)N)C(N)=O)[C@@H](C)CC)C(C)C)[C@@H](C)O (H-[αMeY]ADAIFTNSYRKVLAQLSARKALQDIMSR-NH2)
2,5.3 and 8.8,CC[C@H](C)[C@H](NC(=O)[C@H](C)NC(=O)[C@H](CC(=O)O)NC(=O)[C@H](C)NC(=O)[C@@H](N)Cc1ccc(O)cc1)C(=O)N[C@@H](Cc1ccccc1)C(=O)N[C@H](C(=O)N[C@@H](CC(N)=O)C(=O)N[C@@H](CO)C(=O)N[C@@H](Cc1ccc(O)cc1)C(=O)N[C@@H](CCCN=C(N)N)C(=O)N[C@@H](CCCCN)C(=O)N[C@H](C(=O)N[C@@H](CC(C)C)C(=O)NCC(=O)N[C@H](CCC(N)=O)C(=O)N[C@H](CC(C)C)C(=O)N[C@H](CO)C(=O)N[C@H](C)C(=O)N[C@H](CCCN=C(N)N)C(=O)N[C@H](CCCCN)C(=O)N[C@@H]1CCC(=O)NCCCC[C@@H](C(=O)N[C@H](C(=O)N[C@@H](CCSC)C(=O)N[C@@H](CO)C(=O)N[C@@H](CCCN=C(N)N)C(N)=O)[C@@H](C)CC)NC(=O)[C@H](CCC(N)=O)NC(=O)[C@@H](CC(C)C)NC1=O)C(C)C)[C@@H](C)O
3,0.29,H-YADAIFANSYRKVLGQLSARKLLQDIMSR-NH2
4,1.9 and 4.4,CCCC[C@H]1NC(=O)[C@H]([C@@H](C)CC)NC(=O)[C@H](NC(=O)[C@H](Cc2c[nH]cn2)NC(=O)[C@H](CC(C)C)NC(=O)[C@H](CC(C)C)NC(=O)[C@H](CCCCN)NC(=O)[C@H](CCCN=C(N)N)NC(=O)[C@H](Cc2ccccc2)NC(=O)[C@@H](NC(=O)[C@H](CC(C)C)NC(=O)[C@H](CCC(N)=O)NC(=O)[C@H](C)NC(=O)[C@H](CC(C)C)NC(=O)[C@@H](NC(=O)[C@H](CCCN=C(N)N)NC(=O)[C@H](CCCN=C(N)N)NC(=O)[C@H](Cc2ccc(O)cc2)NC(=O)[C@H](CO)NC(=O)[C@H](CO)NC(=O)[C@@H](NC(=O)[C@H](Cc2ccccc2)NC(=O)[C@@H](NC(=O)[C@H](C)NC(=O)[C@H](CC(=O)O)NC(=O)[C@H](C)NC(=O)[C@@](C)(N)Cc2c[nH]cn2)[C@@H](C)CC)[C@@H](C)O)[C@@H](C)CC)[C@@H](C)CC)CSSC[C@@H](C(N)=O)NC(=O)[C@H](CC(N)=O)NC1=O
5,0.014,CC[C@H](C)[C@H](NC(=O)[C@H](C)NC(=O)[C@H](CC(=O)O)NC(=O)[C@H](C)NC(=O)[C@@H](N)Cc1ccc(O)cc1)C(=O)N[C@@H](Cc1ccccc1)C(=O)N[C@H](C(=O)N[C@H]1CCC(=O)NCCCC[C@H](C(=O)N[C@@H](CCCCN)C(=O)N[C@H](C(=O)N[C@@H](CC(C)C)C(=O)NCC(=O)N[C@@H](CCC(N)=O)C(=O)N[C@@H](CC(C)C)C(=O)N[C@@H](CO)C(=O)N[C@@H](C)C(=O)N[C@@H](CCCN=C(N)N)C(=O)N[C@@H](CCCCN)C(=O)N[C@@H](CC(C)C)C(=O)N[C@@H](CC(C)C)C(=O)N[C@@H](CCC(N)=O)C(=O)N[C@@H](CC(=O)O)C(=O)N[C@H](C(=O)N[C@@H](CCSC)C(=O)N[C@@H](CO)C(=O)N[C@@H](CCCN=C(N)N)C(N)=O)[C@@H](C)CC)C(C)C)NC(=O)[C@H](Cc2ccc(O)cc2)NC(=O)[C@H](CO)NC1=O)[C@@H](C)O
6,4.7,H-YADAIFTNSYRKVLGQLSARKALQDIMSR-NH2
7,0.59,H-YADAIFTNSYRKVLGQLSARKLLQDIMSA-NH2
8,11.2,CC[C@H](C)[C@H](NC(=O)[C@H](C)NC(=O)[C@H](CC(=O)O)NC(=O)[C@H](C)NC(=O)[C@@](C)(N)Cc1ccc(O)cc1)C(=O)N[C@@H](Cc1ccccc1)C(=O)N[C@H](C(=O)N[C@@H](C)C(=O)N[C@@H](C)C(=O)N[C@@H](Cc1ccc(O)cc1)C(=O)N[C@@H](CCCN=C(N)N)C(=O)N[C@@H](CCCCN)C(=O)N[C@H](C(=O)N[C@@H](CC(C)C)C(=O)N[C@@H](C)C(=O)N[C@@H](CCC(N)=O)C(=O)N[C@@H](CC(C)C)C(=O)N[C@@H](CO)C(=O)N[C@@H](C)C(=O)N[C@@H](CCCN=C(N)N)C(=O)N[C@@H](CCCCN)C(=O)N[C@@H](C)C(=O)N[C@@H](CC(C)C)C(=O)N[C@@H](CCC(N)=O)C(=O)N[C@@H](CC(=O)O)C(=O)N[C@H](C(=O)N[C@@H](CCSC)C(=O)N[C@@H](C)C(=O)N[C@@H](CCCN=C(N)N)C(N)=O)[C@@H](C)CC)C(C)C)[C@@H](C)O (H-[αMeY]ADAIFTAAYRKVLAQLSARKALQDIMAR-NH2)
9,0.05,H-YAAAIFTNSYRKVLGQLSARKLLQDIMSR-NH2
10,1.8,CC[C@H](C)[C@H](NC(=O)[C@H](C)NC(=O)[C@H](CC(=O)O)NC(=O)[C@H](C)NC(=O)[C@@H](N)Cc1ccc(O)cc1)C(=O)N[C@@H](Cc1ccccc1)C(=O)N[C@H](C(=O)N[C@@H](CC(N)=O)C(=O)N[C@@H](CO)C(=O)N[C@@H](Cc1ccc(O)cc1)C(=O)N[C@@H](CCCN=C(N)N)C(=O)N[C@@H](CCCCN)C(=O)N[C@H](C(=O)N[C@@H](CC(C)C)C(=O)NCC(=O)N[C@@H](CCC(N)=O)C(=O)N[C@@H](CC(C)C)C(=O)N[C@@H]1CCC(=O)NCCCC[C@@H](C(=O)N[C@@H](CC(C)C)C(=O)N[C@@H](CC(C)C)C(=O)N[C@@H](CCC(N)=O)C(=O)N[C@@H](CC(=O)O)C(=O)N[C@H](C(=O)N[C@@H](CCSC)C(=O)N[C@@H](CO)C(=O)N[C@@H](CCCN=C(N)N)C(N)=O)[C@@H](C)CC)NC(=O)[C@H](CCCN=C(N)N)NC(=O)[C@@H](C)NC1=O)C(C)C)[C@@H](C)O
11,0.01,H-YADAIFTNSARKVLGQLSARKLLQDIMSR-NH2
